Read-outs that look alike come from different tables or passages of the source.
Experiments:
[1] = biological target: SARS-CoV-2 3CL^pro (Severe acute respiratory syndrome coronavirus 2, UniProt P0DTD1); test: biochemical; assay type: biochemical
[2] = system: SARS-CoV-2 hCoV-19/Japan/TY/WK-521 strain; test: microbe, parasite or virus in culture; assay type: cell-based; conditions: Severe acute respiratory syndrome coronavirus 2, HEK-293T, read-out: HEK 293T-AT EC50
[3] = in vitro; conditions: both, human, microsomes
[4] = in vitro; conditions: male, rat, microsomes
[5] = read-out: SARS-CoV-2 3CL^pro IC50

Row | Structure (SMILES) | IC50 [1] [nM] | EC50 [2] [nM] | remaining at 0.5 h [3] [%] | remaining at 0.5 h [4] [%] | IC50 [1, 5] [nM] | improvement of activity by substituents on the S2 phenyl group [1]
1 | Cc1cncc(-n2c(=O)nc(N3Cc4ccccc4C3)n(Cc3cc(F)c(F)c(F)c3)c2=O)c1 [Compound 1, 6-(Isoindolin-2-yl)-3-(5-methylpyridin-3-yl)-1-(3,4,5-trifluorobenzyl)-1,3,5-triazine-2,4(1H,3H)-dione] | 143 | 264 | 49 | 19 | – | –
2 | Cc1cncc(-n2c(=O)[nH]c(N3Cc4ccccc4C3)c(Cc3cc(F)c(F)c(F)c3)c2=O)c1 [Compound 2, 6-(Isoindolin-2-yl)-3-(5-methylpyridin-3-yl)-5-(3,4,5-trifluorobenzyl)-pyrimidine-2,4(1H,3H)-dione] | 335 | 1490 | 45 | 36 | – | –
3 | Cc1cncc(-n2c(=O)c(Cc3cc(F)c(F)c(F)c3)c(N3Cc4ccccc4C3)n(C)c2=O)c1 [Compound 3, 6-(Isoindolin-2-yl)-1-methyl-3-(5-methylpyridin-3-yl)-5-(3,4,5-trifluorobenzyl)-pyrimidine-2,4(1H,3H)-dione] | 179 | 191 | 1 | 1 | – | –
4 | Cc1cncc(-n2c(=O)c(Cc3cc(F)c(F)c(F)c3)c(N3Cc4ccccc4C3)n(CC#N)c2=O)c1 [Compound 4, 2-(6-(Isoindolin-2-yl)-3-(5-methylpyridin-3-yl)-2,4-dioxo-5-(3,4,5-trifluorobenzyl)-3,4-dihydropyrimidin-1(2H)-yl)-acetonitrile] | – | 4.94 | 1 | 3 | 0.76 | –
5 | Cc1cncc(-n2c(=O)c(Cc3cc(F)c(F)c(F)c3)c(N3CCCC3)n(CC#N)c2=O)c1 [Compound 5, 2-(3-(5-Methylpyridin-3-yl)-2,4-dioxo-6-(pyrrolidin-1-yl)-5-(3,4,5-trifluorobenzyl)-3,4-dihydropyrimidin-1(2H)-yl)-acetonitrile] | 11.8 | 20.4 | 4 | 11 | – | –
6 | Cc1cncc(-n2c(=O)c(Cc3cc(F)c(F)c(F)c3)c(N3CCC(C(F)(F)F)CC3)n(CC#N)c2=O)c1 [Compound 6, 2-(3-(5-Methylpyridin-3-yl)-2,4-dioxo-5-(3,4,5-trifluorobenzyl)-6-(4-(trifluoromethyl)-piperidin-1-yl)-3,4-dihydropyrimidin-1(2H)-yl)-acetonitrile] | 1.51 | 9.41 | 13 | 18 | – | –
7 | Cc1cncc(-n2c(=O)c(Cc3cc(F)c(F)c(F)c3)c(N3CC4(CCOCC4)C3)n(CC#N)c2=O)c1 [Compound 7, 2-(3-(5-Methylpyridin-3-yl)-2,4-dioxo-6-(7-oxa-2-azaspiro[3.5]-nonan-2-yl)-5-(3,4,5-trifluorobenzyl)-3,4-dihydropyrimidin-1(2H)-yl)-acetonitrile] | 14 | 41.9 | 58 | 77 | – | –
8 | Cc1cncc(-n2c(=O)c(Cc3cc(F)c(F)c(F)c3)c(N3CC4(C3)CC(F)(F)C4)n(CC#N)c2=O)c1 [Compound 8, 2-(6-(6,6-Difluoro-2-azaspiro[3.3]-heptan-2-yl)-3-(5-methylpyridin-3-yl)-2,4-dioxo-5-(3,4,5-trifluorobenzyl)-3,4-dihydropyrimidin-1(2H)-yl)-acetonitrile] | 5.63 | 14.4 | 36 | 62 | – | –
9 | Cc1cncc(-n2c(=O)c(Cc3cc(F)c(F)c(F)c3)c(N3CC4(CCOC4)C3)n(CC#N)c2=O)c1 [Compound 9, 2-(3-(5-Methylpyridin-3-yl)-2,4-dioxo-6-(6-oxa-2-azaspiro[3.4]-octan-2-yl)-5-(3,4,5-trifluorobenzyl)-3,4-dihydropyrimidin-1(2H)-yl)-acetonitrile] | 8.37 | 18.4 | 58 | 81 | – | –
10 | N#CCn1c(N2CC3(CCOC3)C2)c(Cc2cc(F)c(F)c(F)c2)c(=O)n(-c2cncc(Cl)c2)c1=O [Compound 10, 2-(3-(5-Chloropyridin-3-yl)-2,4-dioxo-6-(6-oxa-2-azaspiro[3.4]-octan-2-yl)-5-(3,4,5-trifluorobenzyl)-3,4-dihydropyrimidin-1(2H)-yl)-acetonitrile] | 8.27 | 25.3 | 17 | 54 | – | –
11 | Cc1cncc(-n2c(=O)c(Cc3ccc(F)c(F)c3)c(N3CC4(CCOC4)C3)n(CC#N)c2=O)c1 [Compound 11, 2-(5-(3,4-Difluorobenzyl)-3-(5-methylpyridin-3-yl)-2,4-dioxo-6-(6-oxa-2-azaspiro[3.4]-octan-2-yl)-3,4-dihydropyrimidin-1(2H)-yl)-acetonitrile] | 19.6 | 41.8 | 55 | 71 | – | –
12 | Cc1cncc(-n2c(=O)c(Cc3ccccc3)c(N3CC4(CCOC4)C3)n(CC#N)c2=O)c1 [Compound 12, 2-(5-Benzyl-3-(5-methylpyridin-3-yl)-2,4-dioxo-6-(6-oxa-2-azaspiro[3.4]-octan-2-yl)-3,4-dihydropyrimidin-1(2H)-yl)-acetonitrile] | 99.6 | 117 | 70 | 70 | – | –
13 | N#CCn1c(N2CC3(CCOC3)C2)c(-c2ccccc2)c(=O)n(-c2cncc(Cl)c2)c1=O [Compound 13, 2-(3-(5-Chloropyridin-3-yl)-2,4-dioxo-5-phenyl-6-(6-oxa-2-azaspiro[3.4]-octan-2-yl)-3,4-dihydropyrimidin-1(2H)-yl)-acetonitrile] | 7.16 | 23.1 | 55 | 58 | – | –
14 | N#CCn1c(N2CC3(CCOC3)C2)c(-c2cccc(Cl)c2)c(=O)n(-c2cncc(Cl)c2)c1=O [Compound 14, 2-(5-(3-Chlorophenyl)-3-(5-chloropyridin-3-yl)-2,4-dioxo-6-(6-oxa-2-azaspiro[3.4]-octan-2-yl)-3,4-dihydropyrimidin-1(2H)-yl)-acetonitrile] | – | 1.57 | 49 | 33 | 0.403 | more than 10 -fold
15 | N#CCn1c(N2CC3(CCOC3)C2)c(-c2ccc(F)c(Cl)c2)c(=O)n(-c2cncc(Cl)c2)c1=O [Compound 15, 2-(5-(3-Chloro-4-fluorophenyl)-3-(5-chloropyridin-3-yl)-2,4-dioxo-6-(6-oxa-2-azaspiro[3.4]-octan-2-yl)-3,4-dihydropyrimidin-1(2H)-yl)-acetonitrile] | 0.493 | 4.48 | 55 | 58 | – | more than 10 -fold
16 | N#CCn1c(N2CC(F)(F)C2)c(-c2ccc(F)c(Cl)c2)c(=O)n(-c2cncc(Cl)c2)c1=O [Compound 16, 2-(5-(3-Chloro-4-fluorophenyl)-3-(5-chloropyridin-3-yl)-6-(3,3-difluoroazetidin-1-yl)-2,4-dioxo-3,4-dihydropyrimidin-1(2H)-yl)-acetonitrile] | 2.36 | 7.79 | 89 | 83 | – | –

From PMC12557365 (Journal of Medicinal Chemistry, 2025)
